Experimental data taken from patent US7332518B2, “Carboxamides as fungicides in agriculture” (Syngenta Crop Protection, Inc., priority 2001, dated 2008).

melting point [°C]	Structure (SMILES)
171 to 172	Cn1cc(C(=O)NCC#Cc2ccccc2-c2ccc(Br)cc2)c(C(F)(F)F)n1 [Compound 2.010, 1-Methyl-3-trifluoromethyl-1H-pyrazole-4-carboxylic acid (4′-bromobiphenyl-2-yl)prop-2-ynyl-amide]
146 to 149	Cn1cc(C(=O)NC=C=Cc2ccccc2-c2ccc(Br)cc2)c(C(F)(F)F)n1 [Compound 2.123, 1-Methyl-3-trifluoromethyl-1H-pyrazole-4-carboxylic acid (4′-bromobiphenyl-2-yl)propa-1,2-dienyl-amide]
142 to 144	C#CCN(C(=O)c1cn(C)cc1C(F)(F)F)c1cccc2c1C(C)CC2(C)C (stereo not drawn) [Compound 10.3, 1-methyl-4-trifluoromethyl-1H-pyrrole-3-carboxylic acid prop-2-ynyl-(1,1,3-trimethylindan-4-yl)amide]
